Laboratory results reported in PubChem BioAssay AID1259411 (Chemical Carcinogenesis Research Information System (CCRIS), 2018).
Activity calls are given as the source filed them. How the calls were made is not given here.

System: rodent carcinogenicity bioassays, tumor incidence
Assay: CCRIS carcinogenicity studies
How it was run: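 Archive of carcinogenicity, mutagenicity, tumor promotion and tumor inhibition results drawn from journals, NCI reports and other sources, expert-reviewed; covers 1985-2011 and is no longer updated.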

With `CCC(=O)OCCCCCC(C)C` the carcinogen call (Species: MOUSE, Strain/Sex: C3H/MALE, Route: DERMAL, Dose: 25 µL (19% W/V IN 70:30 ACETONE/HEPTANE APPLIED TO BACK 3 D/WK FOR LIFE (STUDY DURATION: LIFE)) was “inactive; negative”.

In the case of `Nc1ccc(Cl)cc1N`, the carcinogen call (Species: MOUSE, Strain/Sex: B6C3F1/FEMALE, Route: ORAL, Dose: 0, 0.7, 1.4% TWA, IN DIET FOR 78 WK (STUDY DURATION: 96-97 WK), Dose: 0, 0.7, 1.4% TWA, IN DIET FOR 78 WK (STUDY DURATION: 96-97 WK), Tumor Site: Type of Lesion: LIVER: HEPATOCELLULAR CARCINOMA, HEPATOCELLULAR ADENOMA OR CARCINOMA) was “active; positive”, the carcinogen call (Species: MOUSE, Strain/Sex: B6C3F1/MALE, Route: ORAL, Dose: 0, 0.7, 1.4% TWA, IN DIET FOR 78 WK (STUDY DURATION: 95-97 WK), Dose: 0, 0.7, 1.4% TWA, IN DIET FOR 78 WK (STUDY DURATION: 95-97 WK), Tumor Site: Type of Lesion: LIVER: HEPATOCELLULAR CARCINOMA, HEPATOCELLULAR ADENOMA OR CARCINOMA) was “active; positive” and the carcinogen call (Species: RAT, Strain/Sex: F344/FEMALE, Route: ORAL, Dose: 0, 0.5, 1.0% IN DIET FOR 78 WK (STUDY DURATION: 106 WK), Dose: 0, 0.5, 1.0% IN DIET FOR 78 WK (STUDY DURATION: 106 WK), Tumor Site: Type of Lesion: URINARY BLADDER: PAPILLARY CARCINOMA OR TRANSITIONAL CELL CARCINOMA, PAPILLARY CARCINOMA OR TRANSITIONAL CELL CARCINOMA) was “active; positive”. The carcinogen call (Species: RAT, Strain/Sex: F344/MALE, Route: ORAL, Dose: 0, 0.5, 1.0% IN DIET FOR 78 WK (STUDY DURATION: 105-106 WK), Dose: 0, 0.5, 1.0% IN DIET FOR 78 WK (STUDY DURATION: 105-106 WK), Tumor Site: Type of Lesion: URINARY BLADDER: TRANSITIONAL CELL CARCINOMA, PAPILLOMA (NOS) OR TRANSITIONAL CELL PAPILLOMA OR TRANSITIONAL CELL CARCIN) was “active; positive”.

With `CN(Cc1ccccc1)N=O` the carcinogen call (Species: MOUSE, Strain/Sex: CD-1/MALE, FEMALE, Route: INTRAPERITONEAL, Dose: 0, 4 MG/KG 2/WK FOR 12 WK, 8 MG/KG 2/WK FOR 6 WK, 16 MG/KG 2/WK FOR 3 WK FOR TOTAL DOSES OF 96 MG/KG (STUDY DURATION: 40, Dose: 0, 4 MG/KG 2/WK FOR 12 WK, 8 MG/KG 2/WK FOR 6 WK, 16 MG/KG 2/WK FOR 3 WK FOR TOTAL DOSES OF 96 MG/KG (STUDY DURATION: 40, Tumor Site: Type of Lesion: FORESTOMACH: PAPILLOMA, CARCINOMA) was “active; positive” and the carcinogen call (Species: RAT, Strain/Sex: SPRAGUE-DAWLEY/MALE, Route: GAVAGE, Dose: 0, 0.5, 2 MG/KG IN SALINE ONCE ADMINISTERED TO RATS MAINTAINED ON ZINC-DEFICIENT DIET (STUDY DURATION: 14 WK), Dose: 0, 0.5, 2 MG/KG IN SALINE ONCE ADMINISTERED TO RATS MAINTAINED ON ZINC-DEFICIENT DIET (STUDY DURATION: 14 WK), Tumor Site: Type of Lesion: ESOPHAGUS: TUMOR) was “active; positive”.

`O=P(O)(O)O` was tested, and the carcinogen call (Species: MOUSE, Strain/Sex: B6C3F1/FEMALE, Route: GAVAGE, Dose: 0, 500, 1000 MG/KG IN DEIONIZED WATER 5D/WK FOR 103 WK (STUDY DURATION: 105 WK), Dose: 0, 500, 1000 MG/KG IN DEIONIZED WATER 5D/WK FOR 103 WK (STUDY DURATION: 105 WK)) was “inactive; negative” and the carcinogen call (Species: MOUSE, Strain/Sex: B6C3F1/MALE, Route: GAVAGE, Dose: 0, 500, 1000 MG/KG IN DEIONIZED WATER 5D/WK FOR 103 WK (STUDY DURATION: 105 WK), Dose: 0, 500, 1000 MG/KG IN DEIONIZED WATER 5D/WK FOR 103 WK (STUDY DURATION: 105 WK)) was “inactive; negative”.

In the case of `[Ni]=[Se]`, the carcinogen call (Species: RAT, Strain/Sex: F344/MALE, Route: INTRAMUSCULAR, Tumor Site: Type of Lesion: INJECTION SITE: SARCOMA) was “active; positive”.

In the case of `CN(N=O)C(=O)c1c(N(C)N=O)ncn1C`, the carcinogen call (Species: RAT, Strain/Sex: BD-IX/MALE, FEMALE, Route: GAVAGE, Dose: 0, 6, 60 MG/KG 2/WK AFTER 2 WK HIGH DOSE REDUCED TO 30 MG/KG FOR DURATION OF STUDY (STUDY DURATION: LIFETIME), Dose: 0, 6, 60 MG/KG 2/WK AFTER 2 WK HIGH DOSE REDUCED TO 30 MG/KG FOR DURATION OF STUDY (STUDY DURATION: LIFETIME), Tumor Site: Type of Lesion: FORESTOMACH: TUMOR) was “active; positive”.
